Reference: ChEMBL document CHEMBL4507287, “Data for DCP probe MRL-650” (2021)
Activity calls are given as the source filed them. The calls are words filed in the database; no cut-off is given here.

How the values were obtained:
[1] = GPCRScan assay: inhibition of GABA/PBR; set-up: species or system Rattus norvegicus; radioligand conc. used [nm] 0.3 – 2.0, parental cells brain tissue
[2] = target: Sigma intracellular receptor 2 (Homo sapiens, UniProt Q5BJF2); test: GPCRScan assay: inhibition of Sigma 2; set-up: radioligand conc. used [nm] 5.0, parental cells HEKT
[3] = target: Sigma non-opioid intracellular receptor 1 (Homo sapiens, UniProt Q99720); test: GPCRScan assay: inhibition of Sigma 1; set-up: radioligand conc. used [nm] 4.0 – 5.0, parental cells HEKT
Cannabinoid receptor 1 [4] = target: T1, Cannabinoid receptor 1 (Homo sapiens, UniProt P21554); test: Functional activation assay
T1 sequence (P21554 whole entry): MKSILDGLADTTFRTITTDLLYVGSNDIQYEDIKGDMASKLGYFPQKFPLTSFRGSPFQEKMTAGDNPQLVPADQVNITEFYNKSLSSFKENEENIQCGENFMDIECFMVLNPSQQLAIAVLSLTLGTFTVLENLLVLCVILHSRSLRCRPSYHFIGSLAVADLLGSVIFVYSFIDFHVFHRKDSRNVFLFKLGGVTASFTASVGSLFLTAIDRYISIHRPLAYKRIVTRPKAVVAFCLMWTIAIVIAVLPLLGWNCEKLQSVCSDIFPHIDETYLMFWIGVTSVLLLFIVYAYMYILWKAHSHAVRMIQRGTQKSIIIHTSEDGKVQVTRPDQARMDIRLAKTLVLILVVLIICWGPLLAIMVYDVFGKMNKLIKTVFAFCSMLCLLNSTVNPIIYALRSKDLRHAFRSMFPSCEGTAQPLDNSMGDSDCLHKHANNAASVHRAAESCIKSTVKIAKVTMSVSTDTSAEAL

[5] = target: RAC-alpha serine/threonine-protein kinase (Homo sapiens) (UniProt P31749); settings: Compound concentration 1000.0 nM
[6] = test system: ALK tyrosine kinase receptor (Homo sapiens), Q9UM73 [L1196M]; settings: Compound concentration 1000.0 nM
[7] = target: Cyclin-dependent kinase 4 (Homo sapiens) (UniProt P11802); settings: Compound concentration 1000.0 nM
Chain of Cyclin-dependent kinase 4 (Homo sapiens) (P11802 whole entry): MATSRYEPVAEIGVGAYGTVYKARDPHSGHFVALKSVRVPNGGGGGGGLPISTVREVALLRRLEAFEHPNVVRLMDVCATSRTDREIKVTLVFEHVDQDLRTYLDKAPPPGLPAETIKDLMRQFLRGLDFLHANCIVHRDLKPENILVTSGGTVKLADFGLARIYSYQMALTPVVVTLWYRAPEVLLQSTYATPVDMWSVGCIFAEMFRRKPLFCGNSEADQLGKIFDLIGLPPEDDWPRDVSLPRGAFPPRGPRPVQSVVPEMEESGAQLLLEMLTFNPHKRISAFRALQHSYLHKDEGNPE

[8] = target: Ephrin type-B receptor 6 (Homo sapiens) (UniProt O15197); settings: Compound concentration 1000.0 nM
[9] = target: Mitogen-activated protein kinase kinase kinase 1 (Homo sapiens) (UniProt Q13233); settings: Compound concentration 1000.0 nM
[10] = target: Dual specificity mitogen-activated protein kinase kinase 7 (Homo sapiens) (UniProt O14733); settings: Compound concentration 1000.0 nM
[11] = target: Platelet-derived growth factor receptor alpha (Homo sapiens) (UniProt P16234); settings: Compound concentration 1000.0 nM
Chain of Platelet-derived growth factor receptor alpha (Homo sapiens) (P16234 whole entry): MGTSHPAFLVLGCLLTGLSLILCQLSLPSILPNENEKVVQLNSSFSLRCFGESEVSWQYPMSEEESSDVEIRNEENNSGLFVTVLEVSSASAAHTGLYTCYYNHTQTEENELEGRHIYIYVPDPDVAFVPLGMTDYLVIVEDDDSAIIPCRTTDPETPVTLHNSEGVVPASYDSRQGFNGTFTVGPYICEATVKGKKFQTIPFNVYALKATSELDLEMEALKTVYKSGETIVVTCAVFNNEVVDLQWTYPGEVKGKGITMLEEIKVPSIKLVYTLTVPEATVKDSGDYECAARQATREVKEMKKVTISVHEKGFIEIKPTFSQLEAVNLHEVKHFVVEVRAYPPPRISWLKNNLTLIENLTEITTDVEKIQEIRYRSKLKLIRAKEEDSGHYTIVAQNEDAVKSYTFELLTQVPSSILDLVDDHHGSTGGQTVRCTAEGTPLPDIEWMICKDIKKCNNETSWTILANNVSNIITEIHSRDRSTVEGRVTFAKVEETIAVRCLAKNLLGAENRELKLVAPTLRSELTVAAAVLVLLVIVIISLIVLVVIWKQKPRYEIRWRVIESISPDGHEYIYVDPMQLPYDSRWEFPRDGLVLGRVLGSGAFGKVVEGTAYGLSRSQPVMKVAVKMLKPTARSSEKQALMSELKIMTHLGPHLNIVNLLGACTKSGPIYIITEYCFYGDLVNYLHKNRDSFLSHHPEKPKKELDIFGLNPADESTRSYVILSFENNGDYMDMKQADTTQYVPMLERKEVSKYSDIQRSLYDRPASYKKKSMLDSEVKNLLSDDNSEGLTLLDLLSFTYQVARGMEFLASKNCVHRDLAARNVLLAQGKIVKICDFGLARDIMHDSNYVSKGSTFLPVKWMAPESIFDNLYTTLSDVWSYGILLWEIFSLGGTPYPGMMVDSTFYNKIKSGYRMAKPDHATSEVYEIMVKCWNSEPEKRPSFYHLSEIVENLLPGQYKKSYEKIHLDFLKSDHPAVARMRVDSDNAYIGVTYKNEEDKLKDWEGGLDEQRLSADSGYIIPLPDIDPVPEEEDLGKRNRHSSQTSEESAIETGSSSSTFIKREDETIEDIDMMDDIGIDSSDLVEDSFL

[12] = target: Phosphatidylinositol 4-phosphate 5-kinase type-1 alpha (Homo sapiens) (UniProt Q99755); settings: Compound concentration 1000.0 nM
Chain of Phosphatidylinositol 4-phosphate 5-kinase type-1 alpha (Homo sapiens) (Q99755 whole entry): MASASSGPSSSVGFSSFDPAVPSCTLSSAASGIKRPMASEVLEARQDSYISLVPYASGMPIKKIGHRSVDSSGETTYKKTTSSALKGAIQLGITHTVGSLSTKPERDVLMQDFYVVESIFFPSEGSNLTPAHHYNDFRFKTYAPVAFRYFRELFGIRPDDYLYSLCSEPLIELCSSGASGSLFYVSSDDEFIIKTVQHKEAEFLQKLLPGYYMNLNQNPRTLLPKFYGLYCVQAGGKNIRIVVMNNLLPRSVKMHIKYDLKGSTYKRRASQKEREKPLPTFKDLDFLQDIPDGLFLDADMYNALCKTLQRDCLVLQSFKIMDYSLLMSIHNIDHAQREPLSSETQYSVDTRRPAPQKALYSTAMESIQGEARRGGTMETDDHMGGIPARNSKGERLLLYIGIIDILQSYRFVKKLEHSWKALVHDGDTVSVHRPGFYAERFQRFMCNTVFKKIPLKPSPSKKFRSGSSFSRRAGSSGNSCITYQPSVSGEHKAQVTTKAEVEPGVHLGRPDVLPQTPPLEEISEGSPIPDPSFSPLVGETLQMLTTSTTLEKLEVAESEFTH

[13] = target: Ribosomal protein S6 kinase alpha-6 (Homo sapiens) (UniProt Q9UK32); settings: Compound concentration 1000.0 nM
[14] = target: Tyrosine-protein kinase receptor TYRO3 (Homo sapiens) (UniProt Q06418); settings: Compound concentration 1000.0 nM
Chain of Tyrosine-protein kinase receptor TYRO3 (Homo sapiens) (Q06418 whole entry): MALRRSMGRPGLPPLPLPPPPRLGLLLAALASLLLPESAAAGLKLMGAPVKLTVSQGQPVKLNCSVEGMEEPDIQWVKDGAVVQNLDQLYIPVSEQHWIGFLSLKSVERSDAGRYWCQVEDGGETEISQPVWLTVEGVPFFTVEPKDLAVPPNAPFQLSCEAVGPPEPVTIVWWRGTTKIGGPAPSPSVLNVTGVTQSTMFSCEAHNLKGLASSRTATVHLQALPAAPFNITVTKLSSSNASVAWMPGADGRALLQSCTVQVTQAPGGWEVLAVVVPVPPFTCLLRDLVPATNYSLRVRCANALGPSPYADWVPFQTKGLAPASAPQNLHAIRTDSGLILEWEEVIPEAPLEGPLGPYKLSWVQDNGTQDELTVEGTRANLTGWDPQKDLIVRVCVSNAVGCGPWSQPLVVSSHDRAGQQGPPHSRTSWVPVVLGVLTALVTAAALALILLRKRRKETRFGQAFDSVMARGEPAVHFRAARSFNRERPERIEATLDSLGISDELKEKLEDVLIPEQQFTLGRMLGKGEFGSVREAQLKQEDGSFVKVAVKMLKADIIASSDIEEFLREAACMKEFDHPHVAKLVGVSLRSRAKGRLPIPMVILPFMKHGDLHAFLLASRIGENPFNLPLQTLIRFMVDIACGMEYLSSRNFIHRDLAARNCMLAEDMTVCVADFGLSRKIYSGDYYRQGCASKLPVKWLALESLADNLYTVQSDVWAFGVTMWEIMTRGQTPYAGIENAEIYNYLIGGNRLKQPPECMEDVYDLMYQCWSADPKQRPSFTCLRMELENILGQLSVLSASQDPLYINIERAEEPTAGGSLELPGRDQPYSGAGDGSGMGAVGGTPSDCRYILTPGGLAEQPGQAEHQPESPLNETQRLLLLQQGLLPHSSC

[15] = target: Serine/threonine-protein kinase ULK2 (Homo sapiens) (UniProt Q8IYT8); settings: Compound concentration 1000.0 nM
Chain of Serine/threonine-protein kinase ULK2 (Homo sapiens) (Q8IYT8 whole entry): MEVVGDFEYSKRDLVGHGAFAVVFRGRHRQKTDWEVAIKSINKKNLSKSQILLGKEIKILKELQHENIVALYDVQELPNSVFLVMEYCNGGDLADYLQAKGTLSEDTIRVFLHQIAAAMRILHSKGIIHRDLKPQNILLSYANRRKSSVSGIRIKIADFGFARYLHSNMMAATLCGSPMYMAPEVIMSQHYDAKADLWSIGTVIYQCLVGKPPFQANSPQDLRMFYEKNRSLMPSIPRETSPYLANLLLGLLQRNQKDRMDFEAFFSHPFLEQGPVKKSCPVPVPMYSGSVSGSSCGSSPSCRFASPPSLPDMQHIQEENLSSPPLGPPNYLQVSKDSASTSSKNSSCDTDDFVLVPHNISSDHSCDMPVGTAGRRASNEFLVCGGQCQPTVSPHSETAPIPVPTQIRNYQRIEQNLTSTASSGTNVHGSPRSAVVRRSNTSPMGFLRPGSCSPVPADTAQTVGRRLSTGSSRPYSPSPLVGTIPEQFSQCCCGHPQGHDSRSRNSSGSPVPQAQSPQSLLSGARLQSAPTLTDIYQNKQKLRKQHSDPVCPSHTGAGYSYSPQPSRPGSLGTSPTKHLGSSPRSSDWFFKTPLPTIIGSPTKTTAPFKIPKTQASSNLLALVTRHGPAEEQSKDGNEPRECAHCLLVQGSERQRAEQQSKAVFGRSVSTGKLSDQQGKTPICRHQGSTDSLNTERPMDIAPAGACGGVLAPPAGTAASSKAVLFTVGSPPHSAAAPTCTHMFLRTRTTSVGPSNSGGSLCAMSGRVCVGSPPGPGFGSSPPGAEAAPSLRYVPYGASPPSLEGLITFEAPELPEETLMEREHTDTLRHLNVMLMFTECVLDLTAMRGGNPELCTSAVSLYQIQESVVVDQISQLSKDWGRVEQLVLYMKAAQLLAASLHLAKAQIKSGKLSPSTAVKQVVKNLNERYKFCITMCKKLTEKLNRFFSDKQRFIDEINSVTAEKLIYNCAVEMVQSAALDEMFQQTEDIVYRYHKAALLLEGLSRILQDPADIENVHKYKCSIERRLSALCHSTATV

[16] = target: Serine/threonine-protein kinase WNK4 (Homo sapiens) (UniProt Q96J92); settings: Compound concentration 1000.0 nM
[17] = target: 5-hydroxytryptamine receptor 6 (Homo sapiens) (UniProt P50406); settings: Compound concentration 10.0 uM
[18] = target: 5-hydroxytryptamine receptor 7 (Homo sapiens) (UniProt P34969); settings: Compound concentration 10.0 uM
[19] = target: Sodium-dependent serotonin transporter (Homo sapiens) (UniProt P31645); settings: Compound concentration 10.0 uM
[20] = target: Histamine H4 receptor (Homo sapiens) (UniProt Q9H3N8); settings: Compound concentration 10.0 uM
[21] = target: Muscarinic acetylcholine receptor M4 (Homo sapiens) (UniProt P08173); settings: Compound concentration 10.0 uM
[22] = target: 5-hydroxytryptamine receptor 2A (Homo sapiens, UniProt P28223); test: GPCRScan assay: inhibition of 5-HT2A; set-up: radioligand conc. used [nm] 1.2 – 2.4, parental cells HEKT
[23] = target: 5-hydroxytryptamine receptor 2C (Homo sapiens, UniProt P28335); test: GPCRScan assay: inhibition of 5-HT2C; set-up: radioligand conc. used [nm] 1.0 – 2.5, parental cells HEK T
[24] = target: Sodium-dependent dopamine transporter (Homo sapiens, UniProt Q01959); test: GPCRScan assay: inhibition of DAT; set-up: radioligand conc. used [nm] 3.6 – 16.0, parental cells stable HEK
Chain of Sodium-dependent dopamine transporter (Q01959 whole entry): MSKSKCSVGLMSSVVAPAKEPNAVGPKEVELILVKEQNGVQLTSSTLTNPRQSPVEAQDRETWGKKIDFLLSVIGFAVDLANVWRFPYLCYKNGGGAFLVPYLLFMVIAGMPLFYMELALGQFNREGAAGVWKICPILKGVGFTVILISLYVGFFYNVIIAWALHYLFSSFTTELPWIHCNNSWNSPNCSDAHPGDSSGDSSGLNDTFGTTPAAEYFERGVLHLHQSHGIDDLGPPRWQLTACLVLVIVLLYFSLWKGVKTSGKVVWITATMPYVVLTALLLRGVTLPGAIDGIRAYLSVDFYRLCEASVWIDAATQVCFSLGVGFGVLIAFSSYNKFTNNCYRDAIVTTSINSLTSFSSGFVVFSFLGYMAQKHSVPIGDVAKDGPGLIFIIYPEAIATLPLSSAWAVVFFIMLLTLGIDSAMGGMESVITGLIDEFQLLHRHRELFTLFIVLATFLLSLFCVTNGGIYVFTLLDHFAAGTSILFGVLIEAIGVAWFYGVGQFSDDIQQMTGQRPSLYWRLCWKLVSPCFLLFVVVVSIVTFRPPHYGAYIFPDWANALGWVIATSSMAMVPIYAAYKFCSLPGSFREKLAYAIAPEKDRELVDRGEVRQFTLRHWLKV

[25] = target: Delta-type opioid receptor (Homo sapiens, UniProt P41143); test: GPCRScan assay: inhibition of DOR; set-up: radioligand conc. used [nm] 1.0 – 2.0, parental cells stable HEK
[26] = target: Alpha-2B adrenergic receptor (Homo sapiens, UniProt P18089); test: GPCRScan assay: inhibition of Alpha2B; set-up: radioligand conc. used [nm] 1.5 – 2.0, parental cells HEKT
[27] = target: Alpha-2C adrenergic receptor (Homo sapiens, UniProt P18825); test: GPCRScan assay: inhibition of Alpha2C; set-up: radioligand conc. used [nm] 0.5 – 1.0, parental cells stable MDCK
[28] = target: Beta-3 adrenergic receptor (Homo sapiens, UniProt P13945); test: GPCRScan assay: inhibition of Beta3; set-up: radioligand conc. used [nm] 0.2 – 0.5, parental cells HEK Flp-In
[29] = target: GABA-A receptor; anion channel; test: GPCRScan assay: inhibition of GABAA/BZP; type: protein-complex assay, Rattus norvegicus; set-up: radioligand conc. used [nm] 0.6 – 4.0, parental cells brain tissue
Cannabinoid receptor 1 [30] = target: T1, Cannabinoid receptor 1; test: Radioligand Binding Assay (CNR1)
[31] = target: 5-hydroxytryptamine receptor 1A (Homo sapiens) (UniProt P08908); settings: Compound concentration 10.0 uM
[32] = target: 5-hydroxytryptamine receptor 1E (Homo sapiens) (UniProt P28566); settings: Compound concentration 10.0 uM
[33] = target: GABA-A receptor; anion channel (Rattus norvegicus) (UniProt O09028+P15431+P18506+P18508+P19969+P20236+P23574+P23576+P28471+P28473+P30191+P62813+P63079+P63138+Q91ZM7+Q9ES14); settings: Compound concentration 10.0 uM
[34] = target: Beta-1 adrenergic receptor (Homo sapiens) (UniProt P08588); settings: Compound concentration 10.0 uM

Compound	residual activity [5]	residual activity [6]	residual activity [7]	residual activity [8]	residual activity [9]	residual activity [10]	residual activity [11]	residual activity [12]	residual activity [13]	residual activity [14]	residual activity [15]	residual activity [16]	inhibition [21]	further results
CC(=O)Nc1c(C(C)=O)c(=O)n(C)c2nc(-c3ccc(Cl)cc3Cl)c(-c3ccc(Cl)cc3)cc12 [NAPHTHYRIDINONE]	100%	100%	87%	100%	100%	100%	100%	100%	100%	68%	100%	100%	0.711%	Ki [1]: 82 nM; pKi [1]: 7.09; Ki [2]: 605 nM; Ki [3]: 1160 nM; EC50 (Cannabinoid receptor 1 [4]): 4.9 nM (active); inhibition [17]: -3.97%; inhibition [18]: 0.657%; inhibition [19]: -9.53%; inhibition [20]: 13.9%
CC(=O)c1c(NS(C)(=O)=O)c2cc(-c3ccc(Cl)cc3)c(-c3ccc(Cl)cc3Cl)nc2n(C)c1=O [MRL-CB1-NC]	89%	97%	63%	100%	94%	100%	88%	97%	90%	64%	97%	96%	16.2%	Ki [22]: 1810 nM; Ki [23]: 22 nM; Ki ([24]; read-out: Ki): 766 nM; Ki ([24]; read-out: pKi (converted)): 794 nM; Ki [25]: 1410 nM; Ki [26]: 1690 nM; Ki [27]: 10000 nM; Ki [28]: 1130 nM; Ki [29]: 1660 nM; Inverse agonism (Cannabinoid receptor 1 [30]): 32.5%; inhibition [31]: 28.7%; inhibition [32]: 29.2%; inhibition [33]: 0.954%; inhibition [34]: 25.6%
